Reference: article PMC4182301, “Design, synthesis and SAR exploration of tri-substituted 1,2,4-triazoles as inhibitors of the annexin A2–S100A10 protein interaction” (Bioorganic & Medicinal Chemistry, 2014)
“Also recorded” adds a separate entry of the source. Like-named read-outs stand apart in the source and are kept apart here.

What was measured:
[1] = target: interaction between the AnxA2 N-terminus and S100A10 (Homo sapiens, UniProt P60903); assay: Fluorescence screening assay (FRET competitive binding, Cy3-AnxA2(Ac1–14) peptide / Cy5-S100A10); conditions: for pIC50 ± SE / IC50: FRET assay, 12 observations; for IC50: read-out: IC50; for fold increase in potency compared to initial hit compound 1a: relative to 1a; for inhibitory activity (in words): truncation of 35 to 5-methyl derivative, and its side chain extension; for fold loss of activity on truncation of the 4,6-dimethylpyrimidin-2-ylsulfanyl side chain to methyl: relative to parent compound (64 vs 36, 65 vs 46, 66 vs 47)
Experimental: Assessment of compound activity was performed as described.[35] Briefly, a Cy5-labelled S100A10 tracer was developed and binding of a Cy3-labelled AnxA2(Ac1–14) peptide ligand was assessed using a fluorescence resonance energy transfer readout. Assays were carried out in Nunc black non-treated 384-well plates at 20 °C in 50 μL buffer C. All incubations were performed in quadruplicate. Compounds, peptide and buffer controls were added to the wells in a 10 μL volume in 5% DMSO. Cy5-labelled S100A10 tracer (407 nM) and Cy3-labelled AnxA2(Ac1–14) peptide ligand (1.33 μM) were pre-incubated for 5 min at 20 °C and 40 μL of the preformed complex was then added to the wells and mixed for 10 s to yield a final DMSO concentration of 1%. After 5 min incubation at 20 °C, readings were taken on a Perkin Elmer Envision plate reader by excitation at 488 nm and emission at 695 nm. Fluorescence resonance energy transfer (FRET) was calculated by subtracting the sum of the fluorescence emission of S100A10-Cy5 and AA2(1–14)-Cy3 individually from that measured for the co-incubated partners. Compound binding was calculated as percentage of non-treated control and data were analysed by non-linear regression (dose response—variable slope with bottom and top parameters fixed at 0% and 100%, respectively) using Graphpad Prism Software to determine the IC50 of binding (primary assay).

[2] = target: T1, native complex between annexin A2 and S100A10 (Homo sapiens, UniProt P60903); assay: Co-immunoprecipitation of AnxA2 with S100A10 (native complex) from cell lysates, Western blot; type: binding; conditions: MDA-MB-231 cell lysates preincubated with compound or peptide; compared with vehicle
T1 construct: the native complex of the two full-length proteins, AnxA2 and S100A10; endogenous in cells; host or cells: MDA-MB-231 human breast cancer cells (lysate)
Experimental: In the presence of the isolated synthetic peptide AnxA2(1–14), the amount of AnxA2 in the S100A10 immunoprecipitate is reduced, due to it competing with the binding between native AnxA2 and S100A10.
Figure 5 Co-immunoprecipitation of AnxA2 with S100A10. S100A10 was immunoprecipitated from cell lysates and co-immunoprecipitation of AnxA2 was assessed by Western blotting. The amount of AnxA2 in the S100A10 immunoprecipitate was quantified using Scion Image Software and expressed as a percentage of the vehicle-treated sample (n = 4 ± SE).
Human MDA-MB-231 breast cancer cells were extracted in 50 mM Tris–HCl (pH 8.0) buffer containing 150 mM sodium chloride and 1% (v/v) NP-40. Lysates were centrifuged at 17,000×g and incubated at 4 °C for 16 h with 10 μL S100A10 antibody (BD transduction Laboratories) and 50 μL protein A/G agarose (Alpha Diagnostic International Inc). […] The supernatant was then analyzed by SDS–PAGE after which the gel was transferred to a nitrocellulose filter. […]

Sequence of interaction between the AnxA2 N-terminus and S100A10 (P60903 whole entry, species assumed, the tested form may be a part): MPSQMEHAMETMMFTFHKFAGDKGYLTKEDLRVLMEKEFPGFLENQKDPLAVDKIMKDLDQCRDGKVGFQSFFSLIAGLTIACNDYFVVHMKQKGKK
T1 sequence (P60903 whole entry, one chain of several): as the sequence (P60903 whole entry, species assumed, the tested form may be a part) above

SMILES: Cc1cc(C)nc(SCc2nnc(SCC(=O)Nc3ccc(C(C)C)cc3)n2Cc2ccco2)n1 [Compound 36, 2-[5-(4,6-Dimethyl-pyrimidin-2-ylsulfanylmethyl)-4-furan-2-ylmethyl-4H-[1,2,4]triazol-3-ylsulfanyl]-N-(4-isopropyl-phenyl)-acetamide]
- pIC50 ± SE ([1]; Table 1): 5.35 ± 0.04
- IC50 ([1]; Table 1): 4 µM
- fold increase in potency compared to initial hit compound 1a [1]: ~10 fold
- amount of AnxA2 in the S100A10 immunoprecipitate [2]: disrupt the native complex; also recorded: reduced

SMILES: COCCCn1c(CSc2nc(C)cc(C)n2)nnc1SCC(=O)Nc1ccc(C(F)(F)F)cc1 [Compound 51, 2-[5-(4,6-Dimethyl-pyrimidin-2-ylsulfanylmethyl)-4-(3-methoxy-propyl)-4H-[1,2,4]triazol-3-ylsulfanyl]-N-(4-trifluoromethyl-phenyl)-acetamide]
- pIC50 ± SE ([1]; Table 2): 5.02 ± 0.04
- IC50 ([1]; Table 2): 10 µM

SMILES: COc1ccc(-n2c(CSc3nc(C)cc(C)n3)nnc2SCC(=O)Nc2ccc(C(F)(F)F)cc2)cc1 [Compound 52, 2-[5-(4,6-Dimethyl-pyrimidin-2-ylsulfanylmethyl)-4-(4-methoxy-phenyl)-4H-[1,2,4]triazol-3-ylsulfanyl]-N-(4-trifluoromethyl-phenyl)-acetamide]
- pIC50 ± SE ([1]; Table 2): 5.35 ± 0.04
- IC50 ([1]; Table 2): 4 µM
- fold increase in potency compared to initial hit compound 1a [1]: 10 fold

SMILES: Cc1cc(C)nc(SCc2nnc(SCC(=O)Nc3ccc(C(F)(F)F)cc3)n2-c2ccc(Cl)cc2)n1 [Compound 53, 2-[4-(4-Chloro-phenyl)-5-(4,6-dimethyl-pyrimidin-2-ylsulfanylmethyl)-4H-[1,2,4]triazol-3-ylsulfanyl]-N-(4-trifluoromethyl-phenyl)-acetamide]
- pIC50 ± SE ([1]; Table 2): 5.07 ± 0.03
- IC50 ([1]; Table 2): 8 µM

SMILES: COc1ccc(-n2c(CSc3nc(C)cc(C)n3)nnc2SCC(=O)Nc2cc(C(F)(F)F)cc(C(F)(F)F)c2)cc1 [Compound 54, N-(3,5-Bis-trifluoromethyl-phenyl)-2-[5-(4,6-dimethyl-pyrimidin-2-ylsulfanylmethyl)-4-(4-methoxy-phenyl)-4H-[1,2,4]triazol-3-ylsulfanyl]-acetamide]
- pIC50 ± SE ([1]; Table 2): 5.14 ± 0.04
- IC50 ([1]; Table 2): 7 µM

SMILES: COc1ccc(-n2c(CSc3nc(C)cc(C)n3)nnc2SCC(=O)Nc2ccc(Cl)cc2)cc1 [Compound 55, N-(4-Chloro-phenyl)-2-[5-(4,6-dimethyl-pyrimidin-2-ylsulfanylmethyl)-4-(4-methoxy-phenyl)-4H-[1,2,4]triazol-3-ylsulfanyl]-acetamide]
- pIC50 ± SE ([1]; Table 2): 4.65 ± 0.05
- IC50 ([1]; Table 2): 22 µM

SMILES: COc1ccc(NC(=O)CSc2nnc(CSc3nc(C)cc(C)n3)n2-c2ccc(OC)cc2)cc1 [Compound 56, 2-[5-(4,6-Dimethyl-pyrimidin-2-ylsulfanylmethyl)-4-(4-methoxy-phenyl)-4H-[1,2,4]triazol-3-ylsulfanyl]-N-(4-methoxy-phenyl)-acetamide]
- pIC50 ± SE ([1]; Table 2): 3.81 ± 0.03
- IC50 ([1]; Table 2): 154 µM

SMILES: Cc1ccc(NC(=O)CSc2nnc(C)n2Cc2ccco2)cc1C [Compound 62, N-(3,4-Dimethyl-phenyl)-2-(4-furan-2-ylmethyl-5-methyl-4H-[1,2,4]triazol-3-ylsulfanyl)-acetamide]
- pIC50 ± SE ([1]; Table 3): 2.32 ± 0.48
- IC50 ([1]; Table 3): > 1000 µM
- inhibitory activity (in words) [1]: complete loss of activity

SMILES: Cc1ccc(NC(=O)CCSc2nnc(C)n2Cc2ccco2)cc1C [Compound 63, N-(3,4-Dimethyl-phenyl)-3-(4-furan-2-ylmethyl-5-methyl-4H-[1,2,4]triazol-3-ylsulfanyl)-propionamide]
- pIC50 ± SE ([1]; Table 3): 2.95 ± 0.26
- IC50 ([1]; Table 3): > 1000 µM
- inhibitory activity (in words) [1]: abolished activity

SMILES: Cc1nnc(SCC(=O)Nc2ccc(C(C)C)cc2)n1Cc1ccco1 [Compound 64, 2-(4-Furan-2-ylmethyl-5-methyl-4H-[1,2,4]triazol-3-ylsulfanyl)-N-(4-isopropyl-phenyl)-acetamide]
- pIC50 ± SE ([1]; Table 3): 4.40 ± 0.03
- IC50 ([1]; Table 3): 40 µM
- fold loss of activity on truncation of the 4,6-dimethylpyrimidin-2-ylsulfanyl side chain to methyl [1]: 10 fold

SMILES: C=CCn1c(C)nnc1SCC(=O)Nc1ccc(C(C)C)cc1 [Compound 65, 2-(4-Allyl-5-methyl-4H-[1,2,4]triazol-3-ylsulfanyl)-N-(4-isopropyl-phenyl)-acetamide]
- pIC50 ± SE ([1]; Table 3): 3.86 ± 0.11
- IC50 ([1]; Table 3): 138 µM
- fold loss of activity on truncation of the 4,6-dimethylpyrimidin-2-ylsulfanyl side chain to methyl [1]: 14 fold

SMILES: COCCCn1c(C)nnc1SCC(=O)Nc1ccc(C(C)C)cc1 [Compound 66, N-(4-Isopropyl-phenyl)-2-[4-(3-methoxy-propyl)-5-methyl-4H-[1,2,4]triazol-3-ylsulfanyl]-acetamide]
- pIC50 ± SE ([1]; Table 3): 3.79 ± 0.14
- IC50 ([1]; Table 3): 164 µM
- fold loss of activity on truncation of the 4,6-dimethylpyrimidin-2-ylsulfanyl side chain to methyl [1]: 23 fold
